pIC50: −log10 of the molar value. Some results are limits rather than exact numbers.

Holding throughout (assay type): biochemical
One assay has as its target LRRK2 (Homo sapiens, UniProt Q5S007). The assay is described as follows: LRRK2 enzyme inhibition, ADP-Glo kinase assay. Further details: purchased Invitrogen PR8604B. To be noted: ATP 10 μM. The method, then:
To evaluate an inhibitory activity of the compound according to the present invention against LRRK2, LRRK2 (G2019S), DYRK1, CLK1, and TTK kinases, experiments were performed as follows.
Each of the Example compounds was reacted with a purified human LRRK2 (Invitrogen #PR8604B) enzyme to evaluate an ability to inhibit an enzyme using a method as described below. A composition of 40 mM Tris-HCl (pH 7.4), 20 mM MgCl2, 0.5 mg/mL BSA, and 50 μM DTT was used as a reaction buffer, and all reactions of test substances were performed in the reaction buffer. Each of the compounds was diluted […] from a 10 mM DMSO stock using a serial dilution method, and enzyme activities were measured at final compound concentrations of 50, 10, 2, 0.4, 0.08, 0.016, 0.0032, 0.00064, 0.000128, 0.0000256, 0.00000512, and 0.000001024 μM. In the test, purified ATP (10 μM) and an enzyme substrate (0.2 μg) were reacted with a human LRRK2 (25 ng) enzyme at 25° C. for 2 hours, and the enzyme activities were determined using an in vitro ADP-Glo™ kinase assay (Promega). An enzyme-activity reaction solution, an ADP-Glo reaction solution, and an enzyme-ability detection solution were reacted at a ratio of 2:2:1 to measure a degree of inhibition of the enzyme activity with luminescence. The degree of inhibition of the enzyme activity according to the treatment concentration of each of the compounds was calculated based on the fluorescence of the enzyme activity of the solvent control which was not treated with the compound. In this case, the concentration of each of the compounds inhibiting 50% of the enzyme activity was determined to be an IC50 (nM) value, and calculated using Prism (Version 5.01; GraphPad) software.

For a further assay, the target named is T1, human GST-CLK1 (Homo sapiens, UniProt P49759).
T1 construct: purified human GST-CLK1 (129-end, SignalChem) enzyme; purchased SignalChem
T1 sequence (P49759 129-484 limits assumed): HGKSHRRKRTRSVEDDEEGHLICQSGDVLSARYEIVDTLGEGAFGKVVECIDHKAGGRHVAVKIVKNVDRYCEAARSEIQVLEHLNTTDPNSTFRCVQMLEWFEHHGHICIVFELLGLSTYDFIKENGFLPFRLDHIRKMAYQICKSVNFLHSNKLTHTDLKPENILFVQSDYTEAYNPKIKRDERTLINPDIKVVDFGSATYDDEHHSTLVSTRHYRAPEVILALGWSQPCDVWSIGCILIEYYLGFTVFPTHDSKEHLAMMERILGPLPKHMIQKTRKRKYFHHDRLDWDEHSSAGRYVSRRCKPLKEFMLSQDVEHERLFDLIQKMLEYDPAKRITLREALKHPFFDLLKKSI
The assay is described as follows: GST-CLK1 enzyme inhibition, ADP-Glo kinase assay. To be noted: ATP 10 μM, GST-CLK1 129-end. In a few lines: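 Human GST-CLK1 (129-end, 3 ng) reacted with substrate and 10 μM ATP for 1 h at 25° C in 40 mM Tris-HCl pH 7.4, 20 mM MgCl2, 0.5 mg/mL BSA, 50 μM DTT. ADP-Glo luminescence was normalised to solvent control; IC50 (nM) from 3 data sets.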
Background: ADP-Glo turns the ADP formed in a reaction into a luminescent signal.

For another assay, the target named is T2, human GST-DYRK1A (Homo sapiens, UniProt Q13627).
T2 construct: purified human GST-DYRK1A (full length, Thermo Scientifics) enzyme; purchased Thermo Scientifics
In words: GST-DYRK1A enzyme inhibition, ADP-Glo kinase assay. The conditions noted are these: ATP 10 μM, GST-DYRK1A full length, read-out: DYRK1 IC50. In a few lines: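 Full-length human GST-DYRK1A (10 ng) with 10 μM ATP and specific substrate in 40 mM Tris-HCl pH 7.4, 20 mM MgCl2, 0.5 mg/mL BSA, 50 μM DTT, 1 h at 25 °C. ADP formation read by ADP-Glo luminescence relative to solvent control; IC50 from three data sets.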

The target in the next assay is LRRK2 (G2019S) (Homo sapiens, UniProt Q5S007, G2019S). The assay is described as follows: LRRK2 G2019S enzyme inhibition, ADP-Glo kinase assay. The conditions noted are these: ATP 25 μM. Further details: purchased SignalChem L10-12GG. The method in brief:
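Purified human LRRK2 G2019S (16 ng) with 25 μM ATP and 0.2 μg substrate, 2 h at 25° C. in Tris-HCl pH 7.4, MgCl2, BSA, DTT buffer; compounds at 12 final concentrations, 50 μM down to 0.000001024 μM. ADP-Glo luminescence versus solvent control gave IC50.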

Chain of LRRK2 (G2019S) (Q5S007 970-2527 G2019S limits assumed): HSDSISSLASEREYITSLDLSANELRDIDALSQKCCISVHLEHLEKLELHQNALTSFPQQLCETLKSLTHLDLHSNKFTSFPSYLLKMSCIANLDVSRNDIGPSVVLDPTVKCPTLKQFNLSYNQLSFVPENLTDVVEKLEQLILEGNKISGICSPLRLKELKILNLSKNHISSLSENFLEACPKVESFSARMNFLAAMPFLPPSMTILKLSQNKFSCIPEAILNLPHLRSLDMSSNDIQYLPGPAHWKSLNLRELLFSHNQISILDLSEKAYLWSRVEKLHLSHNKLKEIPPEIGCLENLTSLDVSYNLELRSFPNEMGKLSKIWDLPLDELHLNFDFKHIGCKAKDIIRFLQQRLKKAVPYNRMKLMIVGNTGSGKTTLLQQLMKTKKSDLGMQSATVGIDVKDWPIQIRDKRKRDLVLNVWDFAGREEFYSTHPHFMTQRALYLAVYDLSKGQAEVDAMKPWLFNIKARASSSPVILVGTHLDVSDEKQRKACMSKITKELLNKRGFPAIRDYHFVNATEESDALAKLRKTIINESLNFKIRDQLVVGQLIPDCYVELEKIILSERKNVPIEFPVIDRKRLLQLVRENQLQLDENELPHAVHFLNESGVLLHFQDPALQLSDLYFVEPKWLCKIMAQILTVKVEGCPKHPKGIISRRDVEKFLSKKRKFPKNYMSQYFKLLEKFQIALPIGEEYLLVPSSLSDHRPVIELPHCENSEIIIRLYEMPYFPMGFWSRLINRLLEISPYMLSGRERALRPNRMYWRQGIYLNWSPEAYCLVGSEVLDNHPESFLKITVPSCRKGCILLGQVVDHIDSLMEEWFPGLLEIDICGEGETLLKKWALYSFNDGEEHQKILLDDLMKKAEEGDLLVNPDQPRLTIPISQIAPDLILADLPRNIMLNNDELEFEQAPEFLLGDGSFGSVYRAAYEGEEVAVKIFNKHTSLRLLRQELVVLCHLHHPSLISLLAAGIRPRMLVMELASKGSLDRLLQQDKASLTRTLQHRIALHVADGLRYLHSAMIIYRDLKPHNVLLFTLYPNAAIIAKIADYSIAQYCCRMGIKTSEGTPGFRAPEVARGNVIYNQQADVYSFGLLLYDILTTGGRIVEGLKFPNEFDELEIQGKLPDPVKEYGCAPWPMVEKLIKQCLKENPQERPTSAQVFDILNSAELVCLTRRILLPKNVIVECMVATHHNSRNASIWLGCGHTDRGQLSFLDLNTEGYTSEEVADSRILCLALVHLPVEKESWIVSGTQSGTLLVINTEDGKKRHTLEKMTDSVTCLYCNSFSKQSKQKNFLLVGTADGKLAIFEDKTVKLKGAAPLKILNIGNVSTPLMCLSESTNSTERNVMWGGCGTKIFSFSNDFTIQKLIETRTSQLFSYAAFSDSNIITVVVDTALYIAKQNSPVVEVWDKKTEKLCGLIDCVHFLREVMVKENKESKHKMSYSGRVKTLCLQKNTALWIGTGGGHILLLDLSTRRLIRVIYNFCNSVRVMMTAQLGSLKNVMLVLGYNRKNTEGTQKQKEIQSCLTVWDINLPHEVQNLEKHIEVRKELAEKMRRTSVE
Chain of LRRK2 (Q5S007 970-2527 limits assumed): as the sequence (Q5S007 970-2527 G2019S limits assumed) above, with S1050G counted along it

For orientation: pIC50 means −log10 of the IC50, conventionally taken in molar units. As for `COc1cc(S(C)(=O)=O)ccc1Nc1nc(NCC2CCCC2)c2c(C#N)c[nH]c2n1` [Example 113, 4-((cyclopentylmethyl)amino)-2-((2-methoxy-4-(methylsulfonyl)phenyl)amino)-7H-pyrrolo[2,3-d]pyrimidine-5-carbonitrile], the results for the pIC50 against LRRK2, at human GST-CLK1 and on human GST-DYRK1A were > 7.00, 6.00 to 6.52 and 6.00 to 6.52, respectively.
As to `CNc1nc(Nc2ccc(P3(=O)CCN(C4CCOCC4)CC3)cc2OC)nc2[nH]cc(C(F)(F)F)c12` [Example 436, 4-(3-methoxy-4-((4-(methylamino)-5-(trifluoromethyl)-7H-pyrrolo[2,3-d]pyrimidin-2-yl)amino)phenyl)-1-(tetrahydro-2H-pyran-4-yl)-1,4-azaphosphinane 4-oxide], the negative-log IC50 (pIC50) against LRRK2, on human GST-CLK1 and at human GST-DYRK1A was > 7.00 each time.
Turning to `COCCNc1nc(Nc2ccc(C(=O)N3CCC(N4CCOCC4)CC3)c3c2OCCO3)nc2[nH]cc(C#N)c12` [Example 256, 4-((2-methoxyethyl)amino)-2-((8-(4-morpholinopiperidine-1-carbonyl)-2,3-dihydrobenzo[b][1,4]dioxin-5-yl)amino)-7H-pyrrolo[2,3-d]pyrimidine-5-carbonitrile], the negative logarithm of the IC50 (pIC50) at LRRK2, at human GST-CLK1 and on human GST-DYRK1A was > 7.00 each time.
With `COc1cc(S(C)(=O)=O)ccc1Nc1nc(NCC2CCC2)c2c(C#N)c[nH]c2n1` [Example 112, 4-((cyclobutylmethyl)amino)-2-((2-methoxy-4-(methylsulfonyl)phenyl)amino)-7H-pyrrolo[2,3-d]pyrimidine-5-carbonitrile], the negative-log IC50 (pIC50) at LRRK2 is > 7.00; against human GST-CLK1 it was 6.00 to 6.52; at human GST-DYRK1A it was 6.00 to 6.52.
On to `CNc1nc(Nc2ccc(C(=O)N3CCOCC3)c3c2OCO3)nc2[nH]cc(C(F)(F)F)c12` [Example 214, (7-((4-(methylamino)-5-(trifluoromethyl)-7H-pyrrolo[2,3-d]pyrimidin-2-yl)amino)benzo[d][1,3]dioxol-4-yl)(morpholino)methanone], for which the pIC50 against LRRK2, at human GST-CLK1 and at human GST-DYRK1A was > 7.00 each time.
As for `O=C(c1ccc(Nc2nc(NCC3CCC3)c3c(C(F)(F)F)c[nH]c3n2)c2c1OCCO2)N1CCN(C2COC2)CC1` [Example 424, (8-((4-((cyclo-butylmethyl)amino)-5-(trifluoromethyl)-7H-pyrrolo[2,3-d]pyrimidin-2-yl)amino)-2,3-dihydrobenzo[b] [1,4]dioxin-5-yl) (4-(oxetan-3-yl)piperazin-1-yl)methanone], the negative logarithm of the IC50 (pIC50) was > 7.00 against LRRK2, 6.00 to 6.52 at human GST-CLK1 and 6.00 to 6.52 at human GST-DYRK1A.
Consider `CCNc1nc(Nc2ccc(P3(=O)CCN(C4COC4)CC3)cc2OC)nc2[nH]cc(C(F)(F)F)c12` [Example 399, 4-(4-((4-(ethylamino)-5-(trifluoromethyl)-7H-pyrrolo[2,3-d]pyrimidin-2-yl)amino)-3-methoxyphenyl)-1-(oxetan-3-yl)-1,4-azaphosphinane 4-oxide], for which the negative logarithm of the IC50 (pIC50) against LRRK2, at human GST-CLK1 and on human GST-DYRK1A was > 7.00 throughout.
As for `COCC(C)(C)Nc1nc(Nc2ccc(S(C)(=O)=O)cc2OC)nc2[nH]ccc12` [Example 36, N^4-(1-methoxy-2-methylpropan-2-yl)-N^2-(2-methoxy-4-(methylsulfonyl)phenyl)-7H-pyrrolo[2,3-d]pyrimidine-2,4-diamine], the negative logarithm of the IC50 (pIC50) was > 7.00 on LRRK2 (G2019S), 6.00 to 6.52 at human GST-CLK1 and 6.00 to 6.52 on human GST-DYRK1A.
Consider `O=C(c1ccc(Nc2nc(NC3CCCC3)c3c(C(F)(F)F)c[nH]c3n2)c2c1CCO2)N1CCOCC1` [Example 453, (7-((4-(cyclo-pentylamino)-5-(trifluoromethyl)-7H-pyrrolo[2,3-d]pyrimidin-2-yl)amino)-2,3-dihydrobenzo-furan-4-yl) (morpholino) methanone], for which the pIC50 was > 7.00 against LRRK2 (G2019S), 6.00 to 6.52 against human GST-CLK1 and 6.00 to 6.52 on human GST-DYRK1A.
As for `CC(C)CNc1nc(Nc2ccc(C(=O)N3CCOCC3)c3c2OCC3)nc2[nH]cc(C(F)(F)F)c12` [Example 447, (7-((4-(iso-butylamino)-5-(trifluoromethyl)-7H-pyrrolo[2,3-d]pyrimidin-2-yl)amino)-2,3-dihydrobenzo-furan-4-yl) (morpholino) methanone], the pIC50 on LRRK2 (G2019S) is > 7.00; against human GST-CLK1 it was 6.00 to 6.52; on human GST-DYRK1A, 6.00 to 6.52.
As for `COc1cc(P(C)(C)=O)ccc1Nc1nc(NC2CCCC2)c2c(C(F)(F)F)c[nH]c2n1` [Example 387, (4-((4-(cyclo-pentylamino)-5-(trifluoromethyl)-7H-pyrrolo[2,3-d]pyrimidin-2-yl)amino)-3-methoxy-phenyl)di-methylphosphine oxide], the pIC50 against LRRK2 (G2019S) is > 7.00; on human GST-CLK1, 6.00 to 6.52; on human GST-DYRK1A it was 6.00 to 6.52.
In the case of `O=C(c1ccc(Nc2nc(NC3CC3)c3c(C(F)(F)F)c[nH]c3n2)c2c1CCO2)N1CCOCC1` [Example 433, (7-((4-(cyclo-propylamino)-5-(trifluoromethyl)-7H-pyrrolo[2,3-d]pyrimidin-2-yl)amino)-2,3-dihydrobenzo-furan-4-yl) (morpholino) methanone], the pIC50 against LRRK2 (G2019S) was > 7.00; on human GST-CLK1, > 7.00; on human GST-DYRK1A, 6.00 to 6.52.
For `CNc1nc(Nc2ccc(S(=O)(=O)N3CCOCC3)cc2OC)nc2[nH]ccc12` [Example 2, N^2-(2-methoxy-4-(morpholinosulfonyl)phenyl)-N^4-methyl-7H-pyrrolo[2,3-d]pyrimidine-2,4-diamine 2,2,2-trifluoroacetate], the pIC50 against LRRK2 (G2019S) is > 7.00; against human GST-CLK1 it was 6.00 to 6.52; on human GST-DYRK1A, 6.00 to 6.52.
As to `COc1cc(S(=O)(=O)N2CCOCC2)ccc1Nc1nc(NC2CC2)c2cc[nH]c2n1` [Example 57, N^4-cyclopropyl-N^2-(2-methoxy-4-(morpholinosulfonyl)phenyl)-7H-pyrrolo[2,3-d]pyrimidine-2,4-diamine], the pIC50 against LRRK2 (G2019S) is > 7.00; against human GST-CLK1, 6.00 to 6.52; at human GST-DYRK1A, 6.00 to 6.52.
Consider `CC[C@H](C)Nc1nc(Nc2ccc(C(=O)N3CCOCC3)c3c2OCCO3)nc2[nH]cc(C(F)(F)F)c12` [Example 381, (S)-(8-((4-(sec-butylamino)-5-(trifluoromethyl)-7H-pyrrolo[2,3-d]pyrimidin-2-yl)amino)-2,3-dihydrobenzo[b] [1,4]dioxin-5-yl)(morpholino) methanone], for which the pIC50 against LRRK2 (G2019S) is > 7.00; against human GST-CLK1, 6.00 to 6.52; on human GST-DYRK1A it was 6.00 to 6.52.
In the case of `CC(C)CNc1nc(Nc2ccc(C(=O)N3CCOCC3)c3c2OCCO3)nc2[nH]ccc12` [Example 44, (8-((4-(isobutylamino)-7H-pyrrolo[2,3-d]pyrimidin-2-yl)amino)-2,3-dihydrobenzo[b][1,4]dioxin-5-yl)(morpholino)methanone], the negative logarithm of the IC50 (pIC50) was > 7.00 on LRRK2 (G2019S), 6.00 to 6.52 at human GST-CLK1 and 6.00 to 6.52 on human GST-DYRK1A.
As to `COc1cc(S(=O)(=O)N2CCC(N3CCOCC3)CC2)ccc1Nc1nc(NCC2CCC2)c2cc[nH]c2n1` [Example 38, N^4-(cyclobutylmethyl)-N^2-(2-methoxy-4-((4-morpholinopiperidin-1-yl)sulfonyl)phenyl)-7H-pyrrolo[2,3-d]pyrimidine-2,4-diamine 2,2,2-trifluoroacetate], the figures for the pIC50 at LRRK2 (G2019S), against human GST-CLK1 and at human GST-DYRK1A were > 7.00, 6.00 to 6.52 and 6.00 to 6.52, respectively.
